Laboratory results reported in patent US12678454B2, “Bicarbonate as a potentiator for antimicrobial agents” (priority 2017, dated 2026).
Read-outs that look alike come from different tables or passages of the source.

Legend:
[1] = system: E. coli (K-12 BW25113); assay type: cell-based, Escherichia coli; parameters: MIC, E. coli, MHB− / MIC, E. coli, MHB+: unit not given here
Experimental: (§1) In the following experiments, bacterial cells were cultured in 96-well microtiter plates in cation-adjusted Mueller-Hinton Broth (MHB) for 18 h at 37° C. The main strains used in this study were E. coli (K-12 BW25113) (placed in stationary incubator) and S. aureus (Strain Newman) (incubated at 250 r.p.m). Knockout strains (ΔtolcC and ΔychM) were used from the Keio knockout collection (Baba, T. et al. Construction of Escherichia coli K-12 in-frame, single-gene knockout mutants: the Keio collection. Mol Syst Biol 2, 2006 0008, doi:10.1038/msb4100050 (2006)). For minimum concentration for inhibition (MIC) determination and checkerboard analyses, Clinical & Laboratory Standards Institute (CLSI) protocol was used. […] DiSC3 loading of S. aureus cells was performed as previously described (Farha, M. A., Verschoor, C. P., Bowdish, D. & Brown, E. D. Collapsing the proton motive force to identify synergistic combinations against Staphylococcus aureus. Chemistry & biology 20, 1168-1178, doi:10.1016/j.chembiol.2013.07.006 (2013)). CCCP concentration of 20 μM was used. pH adjustments were made by addition of HCl or NaOH. INT assay and ATP bioluminescence assays were performed as previously described (Farha, M. A., Verschoor, C. P., Bowdish, D. & Brown, E. D. Collapsing the proton motive force to identify synergistic combinations against Staphylococcus aureus. Chemistry & biology 20, 1168-1178, doi:10.1016/j.chembiol.2013.07.006 (2013)). For chemical-genomic studies, the Keio library was grown overnight in cation-adjusted MHB broth, in 384-well plates. From these, treatment plates (25 mM sodium bicarbonate, or a sterile water control) were inoculated and grown for 15 hours at 37° C., in a stationary incubator. Data was normalized according to Mangat et al (Mangat, C. S., Bharat, A., Gehrke, S. S. & Brown, E. D. Rank ordering plate data facilitates data visualization and normalization in high-throughput screening. J Biomol Screen 19, 1314-1320, doi:10.1177/1087057114534298 (2014)), with gene products and GO terms mined from EcoCyc. The GFP promoter library (Keseler, I. M. et al. EcoCyc: fusing model organism databases with systems biology. Nucleic Acids Res 41, D605-612, doi:10.1093/nar/gks1027 (2013)) was grown for 18 hours at ambient temperature with the same inoculation strategy as with the Keio collection. The analysis pipeline of Zaslaver et al (Zaslaver, A. et al. A comprehensive library of fluorescent transcriptional reporters for Escherichia coli. Nat Methods 3, 623-628, doi:10.1038/nmeth895 (2006)) was used to generate maps of promoter activity, from which lists of promoters with increased or decreased activity were compiled.

[2] = system: A. baumannii; assay: Murine model of systemic A. baumannii infection; assay type: in vivo; conditions: mice
Experimental: Mice were treated two-hours post-infection to allow complete organ occupancy by the injected cells.

[3] = system: methicillin-resistance Staphylococcus aureus (MRSA) USA-300; assay: Superficial skin infection model, tape-stripped mice; assay type: in vivo; conditions: topical 0.5% aqueous solution with or without bicarbonate (50 mM)
Experimental: In this model, an infection is established by disrupting the skin barrier through partial removal of the epidermal layer by stripping with adhesive tape and with subsequent application of the pathogen. Tape-stripped mice infected with 4×10^6 CFU/mL A. baumannii (FIG. 4A) or 4×10^6 CFU/mL methicillin-resistance Staphylococcus aureus (MRSA) USA-300 (FIG. 4B). […] This treatment regime was also conducted for the Vehicle (1.9% Boric Acid, pH 7) as a control (n=4). Tissue samples were collected at 25 hr post-infection (FIG. 4A) and 28 hr post-infection (FIG. 4B). […] (FIG. 5).

[4] = system: Gram-negative organisms
[5] = system: Gram-positive organisms
[6] = system: E. coli; assay: Microdilution checkerboard analyses; assay type: cell-based, Escherichia coli
Experimental: as §1, with “The GFP promoter library (Keseler, I. M. et al. EcoCyc: fusing model organism databases with systems biology. Nucleic Acids Res 41, D605-612, doi:10.1093/nar/gks1027 (2013)) was grown for 18 hours at ambient temperature with the same inoculation strategy as with the Keio collection. The analysis pipeline of Zaslaver et al (Zaslaver, A. et al. A comprehensive library of fluorescent transcriptional reporters for Escherichia coli. Nat Methods 3, 623-628, doi:10.1038/nmeth895 (2006)) was used to generate maps of promoter activity, from which lists of promoters with increased or decreased activity were compiled.” left out

[7] = for pH of MHB media: prior to pH-adjusting to 7.4
Text: Test media were pH-adjusted upon addition of sodium bicarbonate for all studies reported herein.

[8] = system: Acinetobacter baumannii; assay: MIC determination (CLSI protocol); assay type: cell-based
Experimental: as §1, with “The GFP promoter library (Keseler, I. M. et al. EcoCyc: fusing model organism databases with systems biology. Nucleic Acids Res 41, D605-612, doi:10.1093/nar/gks1027 (2013)) was grown for 18 hours at ambient temperature with the same inoculation strategy as with the Keio collection. The analysis pipeline of Zaslaver et al (Zaslaver, A. et al. A comprehensive library of fluorescent transcriptional reporters for Escherichia coli. Nat Methods 3, 623-628, doi:10.1038/nmeth895 (2006)) was used to generate maps of promoter activity, from which lists of promoters with increased or decreased activity were compiled.” left out

[9] = system: Klebsiella pneumoniae; assay: MIC determination (CLSI protocol); assay type: cell-based
Experimental: as §1, with “The GFP promoter library (Keseler, I. M. et al. EcoCyc: fusing model organism databases with systems biology. Nucleic Acids Res 41, D605-612, doi:10.1093/nar/gks1027 (2013)) was grown for 18 hours at ambient temperature with the same inoculation strategy as with the Keio collection. The analysis pipeline of Zaslaver et al (Zaslaver, A. et al. A comprehensive library of fluorescent transcriptional reporters for Escherichia coli. Nat Methods 3, 623-628, doi:10.1038/nmeth895 (2006)) was used to generate maps of promoter activity, from which lists of promoters with increased or decreased activity were compiled.” left out

[10] = system: Pseudomonas aeruginosa; assay: MIC determination (CLSI protocol); assay type: cell-based
Experimental: as §1, with “The GFP promoter library (Keseler, I. M. et al. EcoCyc: fusing model organism databases with systems biology. Nucleic Acids Res 41, D605-612, doi:10.1093/nar/gks1027 (2013)) was grown for 18 hours at ambient temperature with the same inoculation strategy as with the Keio collection. The analysis pipeline of Zaslaver et al (Zaslaver, A. et al. A comprehensive library of fluorescent transcriptional reporters for Escherichia coli. Nat Methods 3, 623-628, doi:10.1038/nmeth895 (2006)) was used to generate maps of promoter activity, from which lists of promoters with increased or decreased activity were compiled.” left out

[11] = system: S. aureus (Strain Newman); assay: MIC determination (CLSI protocol) in MHB; assay type: cell-based, Staphylococcus aureus; conditions: for MIC, S. aureus, MHB−: MHB without sodium bicarbonate
Experimental: as §1

[12] = system: Enterococcus faecium
Experimental: In the following experiments, bacterial cells were cultured in 96-well microtiter plates in cation-adjusted Mueller-Hinton Broth (MHB) for 18 h at 37° C. The main strains used in this study were E. coli (K-12 BW25113) (placed in stationary incubator) and S. aureus (Strain Newman) (incubated at 250 r.p.m). Knockout strains (ΔtolcC and ΔychM) were used from the Keio knockout collection (Baba, T. et al. Construction of Escherichia coli K-12 in-frame, single-gene knockout mutants: the Keio collection. Mol Syst Biol 2, 2006 0008, doi:10.1038/msb4100050 (2006)). For minimum concentration for inhibition (MIC) determination and checkerboard analyses, Clinical & Laboratory Standards Institute (CLSI) protocol was used. […] DiSC3 loading of S. aureus cells was performed as previously described (Farha, M. A., Verschoor, C. P., Bowdish, D. & Brown, E. D. Collapsing the proton motive force to identify synergistic combinations against Staphylococcus aureus. Chemistry & biology 20, 1168-1178, doi:10.1016/j.chembiol.2013.07.006 (2013)). CCCP concentration of 20 μM was used. pH adjustments were made by addition of HCl or NaOH. […]

[13] = system: Klebsiella pneumonia (ATCC 43816); conditions: mice
Experimental: Mice were infected with Klebsiella pneumonia (ATCC 43816; inoculum=2.5×10^6 CFU/mL). Following infection, the infected mice were treated with 4 mL nebulized doses of 225 mM sodium bicarbonate using a chamber nebulizer delivery system (Kent Scientific) at 2, 12 and 24 hours post-infection. The mice were sacrificed after 36 hours, and bacterial counts enumerated.

**Q.** For N=C(N)c1ccc(OCCCCCOc2ccc(C(=N)N)cc2)cc1 [pentamidine], which “MIC of pentamidine, tissue culture media formulated to mimic the natural environment” value [1] is on record?
**A.** 1.5 µg/mL

**Q.** And the “A. baumannii organ load (spleen), combination” value ([2]; combination of pentamidine 10 mg/kg and novobiocin IP)?
**A.** total clearance

**Q.** What about the “decrease of A. baumannii organ load (spleen)” value ([2]; pentamidine alone IP) of the same compound?
**A.** seven

**Q.** And the “effect of addition of bicarbonate on efficacy of pentamidine in clearing MRSA infection” value [3]?
**A.** increased the antibacterial efficacy

**Q.** And the “potentiation of antibacterial activity in the presence of bicarbonate, average” value [4]?
**A.** 40 fold

**Q.** And the “potentiation of antibacterial activity in the presence of bicarbonate, average” value [5]?
**A.** 50 fold

**Q.** Which results are given for O=P([O-])([O-])[O-].[Na+].[Na+].[Na+] [trisodium phosphate]?
**A.** effect on activity of dirithromycin (checkerboard) ([6]; pH not adjusted (pH ~10)): potentiated the activity of dirithromycin; effect on activity of dirithromycin (checkerboard) ([6]; pH of the medium adjusted to 7.2): loss of synergy; increase of the pH of the media ([7]; trisodium phosphate added): 3 units

**Q.** Which “MIC of sodium bicarbonate” value ([1]; Escherichia coli) does the source give for O=C([O-])O.[Na+] [Sodium bicarbonate] here?
**A.** 100 mM

**Q.** What about the “MIC of sodium bicarbonate” value [8] of the same compound?
**A.** 50 mM

**Q.** What about the “MIC of sodium bicarbonate” value [9] of the same compound?
**A.** 100 mM

**Q.** What about the “MIC of sodium bicarbonate” value [10] of the same compound?
**A.** >100 mM

**Q.** And the “MIC of sodium bicarbonate” value ([11]; Staphylococcus aureus)?
**A.** 50 to 100 mM

**Q.** And the “MIC of sodium bicarbonate” value [12]?
**A.** 50 to 100 mM

**Q.** What about the “effect on activity of pentamidine (checkerboard)” value ([6]; E. coli, dose-dependent) of the same compound?
**A.** greatly potentiated the activity of pentamidine

**Q.** What about the “tolerability of nebulized bicarbonate” value ([13]; 225 mM nebulized) of the same compound?
**A.** well tolerated

**Q.** And the bacterial counts ([13]; 4 mL nebulized 225 mM sodium bicarbonate at 2, 12, 24 h, counts after 36 hours, inoculum 2.5×10^6 CFU/mL)?
**A.** 4×10^4-4×10^5 CFU/mL

**Q.** And the “pH of MHB media” value ([7]; 3.12 mM sodium bicarbonate)?
**A.** 7.42

**Q.** And the “pH of MHB media” value ([7]; 25 mM sodium bicarbonate)?
**A.** 7.53

**Q.** And the “pH of MHB media” value ([7]; 50 mM sodium bicarbonate)?
**A.** 7.61

**Q.** What about the “pH of MHB media” value ([7]; 100 mM sodium bicarbonate) of the same compound?
**A.** 7.71

**Q.** Which “Fold, E. coli” value [1] does the source give for CCN1CCN(C(=O)N[C@@H](C(=O)N[C@@H]2C(=O)N3C(C(=O)O)=C(CSc4nnnn4C)CS[C@H]23)c2ccc(O)cc2)C(=O)C1=O [Cefoperazone] here?
**A.** 1 fold

**Q.** What about the “MIC, E. coli, MHB+” value [1] of the same compound?
**A.** 0.125

**Q.** And the “Fold, S. aureus” value [11]?
**A.** −16 fold

**Q.** What about the MIC, S. aureus, MHB− [11] of the same compound?
**A.** 0.25 µg/mL

**Q.** With C[C@H]1COc2c(N3CCN(C)CC3)c(F)cc3c(=O)c(C(=O)O)cn1c23 [Levofloxacin] as the compound, how does the “Fold, E. coli” value [1] read?
**A.** 1 fold

**Q.** And the “MIC, E. coli, MHB+” value [1]?
**A.** 0.0313

**Q.** What about the “Fold, S. aureus” value [11] of the same compound?
**A.** −2 fold

**Q.** And the MIC, S. aureus, MHB− [11]?
**A.** 0.5 µg/mL

**Q.** Which “Fold, E. coli” value [1] does the source give for CO[C@H]1/C=C/O[C@@]2(C)Oc3c(C)c(O)c4c(O)c(c(/C=N/N5CCN(C)CC5)c(O)c4c3C2=O)NC(=O)/C(C)=C\C=C\[C@H](C)[C@H](O)[C@@H](C)[C@@H](O)[C@@H](C)[C@H](OC(C)=O)[C@@H]1C [Rifampicin] here?
**A.** −2 fold

**Q.** What about the “MIC, E. coli, MHB+” value [1] of the same compound?
**A.** 64

**Q.** What about the “Fold, S. aureus” value [11] of the same compound?
**A.** −4 fold

**Q.** And the MIC, S. aureus, MHB− [11]?
**A.** 0.0078 µg/mL
